According to PMC8653295 (Chemistry (Weinheim an Der Bergstrasse, Germany), 2021):
Several values for one entry are separate records, joined by “and”; a condition that tells them apart may be missing. Identical values can stand only once.

Target: interaction of the RBD of the SARS‐CoV‐2 S protein with the ACE2 receptor (Severe acute respiratory syndrome coronavirus 2, UniProt P0DTC2)
Assay: not given
Assay type: binding
Details: 20 µM

First: C1=CCCC=CCC1.CCn1[c-][n+](CC)c(-c2ccc(F)cc2)c1.[Cl-].[Rh+] [Rh‐4]
Second: K7[Ti2PW10O40] ⋅ 6H2O [POM‐3]
The “inhibition of the S/ACE2 interaction” value of the first is lower: 6% for the first, 68% for the second.

Going from `CC(C)n1cc(-c2ccccc2)[n+](C(C)C)[c]1[Au-][c]1n(C(C)C)c(-c2ccccc2)c[n+]1C(C)C.[I-]` [Au‐29] to `Cc1ccc(C(C)C)cc1.Cc1ccc2c(c1)[n+](Cc1ccccc1)[c-]n2Cc1ccccc1.[Br-].[Br-].[Ru+2]` [Ru‐2], the “inhibition of the S/ACE2 interaction” value falls from 8% to 0%.

Compared with `C1=CCCC=CCC1.Cn1[c-][n+](C)c(-c2ccccc2)c1.[Cl-].[Rh+]` [Rh‐8], `Cn1[c]([Au-][c]2n(C)c3ccccc3[n+]2C)[n+](C)c2ccccc21.[I-]` [Au‐21] is higher in “inhibition of the S/ACE2 interaction” value: 12% for the first, 22% for the second.

First: CC(=O)OC[C@H]1O[C@@H]([S-])[C@H](OC(C)=O)[C@@H](OC(C)=O)[C@@H]1OC(C)=O.CCP(CC)CC.[Au+] [Au‐1, auranofin, reference compound]
Second: C[CH2][Hg][S]c1ccccc1C(=O)[O-].[Na+] [Hg‐1, thiomersal, reference compound]
The “inhibition of the S/ACE2 interaction” value of the first is higher: 20% for the first, 7% for the second.

Going from `C1=CCCC=CCC1.CCn1[c-][n+](CC)c(-c2ccc(F)cc2)c1.[Br-].[Rh+]` [Rh‐5] to `C1=CCCC=CCC1.Cn1[c-][n+](C)c(-c2ccccc2)c1.[Br-].[Rh+]` [Rh‐9], the “inhibition of the S/ACE2 interaction” value rises from 5% to 17%.

Going from ((NH2)3C)4[(N3C6H4As)2Mo6O24] [POM‐10] to `C1=CCCC=CCC1.CCn1[c-][n+](CC)c(-c2ccccc2)c1.[Cl-].[Rh+]` [Rh‐1], the “inhibition of the S/ACE2 interaction” value falls from 6% to 0%.

Going from `CCn1[c]([Au-][S]C(=S)N2CCC(C(=O)NC3C(O)OC(CO)C(O)C3O)CC2)[n+](CC)c2ccccc21` (mixture of isomers) [Au‐35] to `CC(C)n1[c]([Au-][c]2n(C(C)C)c3ccccc3[n+]2C(C)C)[n+](C(C)C)c2ccccc21.[Br-]` [Au‐22], the “inhibition of the S/ACE2 interaction” value rises from 0% to 23%.

Going from `O=C(NC1C(O)OC(CO)C(O)C1O)C1CCN(C(=S)[S][Au][PH](c2ccccc2)(c2ccccc2)c2ccccc2)CC1` (mixture of isomers) [Au‐36] to `COc1ccc(C#[C][Au-][c]2n(C)c3ccccc3[n+]2C)cc1` [Au‐6], the “inhibition of the S/ACE2 interaction” value rises from 0% to 16%.

Target: SARS‐CoV PL^pro (Severe acute respiratory syndrome coronavirus, UniProt P0C6X7)
Assay: biochemical
Assay type: biochemical
Details: not given

First: C1=CCCC=CCC1.Cn1[c-][n+](C)c(-c2ccccc2)c1.[Br-].[Rh+] [Rh‐9]
Second: O=C(NC1C(O)OC(CO)C(O)C1O)C1CCN(C(=S)[S][Au][PH](c2ccccc2)(c2ccccc2)c2ccccc2)CC1 (mixture of isomers) [Au‐36]
The IC50 of the first is 20-fold higher: 6.7 ± 2.4 µM for the first, 0.33 ± 0.16 µM for the second.

With `C1=CCCC=CCC1.Cn1[c-][n+](C)c(-c2ccccc2)c1.[Br-].[Rh+]` [Rh‐9] the “IC50 SARS‐CoV PL^pro” value was “low micromolar range”.
`CCn1[c]([Au-][S]C(=S)N2CCC(C(=O)NC3C(O)OC(CO)C(O)C3O)CC2)[n+](CC)c2ccccc21` (mixture of isomers) [Au‐35] was tested, and the “IC50 SARS‐CoV PL^pro” value was “Submicromolar”.
With `O=C(NC1C(O)OC(CO)C(O)C1O)C1CCN(C(=S)[S][Au][PH](c2ccccc2)(c2ccccc2)c2ccccc2)CC1` (mixture of isomers) [Au‐36] the “IC50 SARS‐CoV PL^pro” value was “Submicromolar”.

Same assay, conditions: 10 µM

Compared with `C1=CCCC=CCC1.CCn1[c-][n+](CC)c(-c2ccc(F)cc2)c1.[Cl-].[Rh+]` [Rh‐4], K7[Ti2PW10O40] ⋅ 6H2O [POM‐3] is lower in “inhibition of SARS-CoV PLpro” value: 72% for the first, 63% for the second.

Compared with `CC(C)n1cc(-c2ccccc2)[n+](C(C)C)[c]1[Au-][c]1n(C(C)C)c(-c2ccccc2)c[n+]1C(C)C.[I-]` [Au‐29], `Cc1ccc(C(C)C)cc1.Cc1ccc2c(c1)[n+](Cc1ccccc1)[c-]n2Cc1ccccc1.[Br-].[Br-].[Ru+2]` [Ru‐2] is lower in “inhibition of SARS-CoV PLpro” value: 24% for the first, 20% for the second.

Going from `C1=CCCC=CCC1.Cn1[c-][n+](C)c(-c2ccccc2)c1.[Cl-].[Rh+]` [Rh‐8] to `Cn1[c]([Au-][c]2n(C)c3ccccc3[n+]2C)[n+](C)c2ccccc21.[I-]` [Au‐21], the “inhibition of SARS-CoV PLpro” value falls from 93% to 11%.

First: C[CH2][Hg][S]c1ccccc1C(=O)[O-].[Na+] [Hg‐1, thiomersal, reference compound]
Second: C1=CCCC=CCC1.CCn1[c-][n+](CC)c(-c2ccc(F)cc2)c1.[Br-].[Rh+] [Rh‐5]
The “inhibition of SARS-CoV PLpro” value of the first is lower: -63% for the first, 71% for the second.

First: C1=CCCC=CCC1.Cn1[c-][n+](C)c(-c2ccccc2)c1.[Br-].[Rh+] [Rh‐9]
Second: ((NH2)3C)4[(N3C6H4As)2Mo6O24] [POM‐10]
The “inhibition of SARS-CoV PLpro” value of the first is higher: 94% for the first, 7% for the second.

Going from `C1=CCCC=CCC1.CCn1[c-][n+](CC)c(-c2ccccc2)c1.[Cl-].[Rh+]` [Rh‐1] to `CCn1[c]([Au-][S]C(=S)N2CCC(C(=O)NC3C(O)OC(CO)C(O)C3O)CC2)[n+](CC)c2ccccc21` (mixture of isomers) [Au‐35], the “inhibition of SARS-CoV PLpro” value rises from 67% to 85%.

Compared with `CC(C)n1[c]([Au-][c]2n(C(C)C)c3ccccc3[n+]2C(C)C)[n+](C(C)C)c2ccccc21.[Br-]` [Au‐22], `O=C(NC1C(O)OC(CO)C(O)C1O)C1CCN(C(=S)[S][Au][PH](c2ccccc2)(c2ccccc2)c2ccccc2)CC1` (mixture of isomers) [Au‐36] is higher in “inhibition of SARS-CoV PLpro” value: 39% for the first, 79% for the second.

With `CC(=O)OC[C@H]1O[C@@H]([S-])[C@H](OC(C)=O)[C@@H](OC(C)=O)[C@@H]1OC(C)=O.CCP(CC)CC.[Au+]` [Au‐1, auranofin, reference compound] the “inhibition of SARS-CoV PLpro” value was 58% and > 50%.

Same assay, conditions: read-out: inhibition of SARS-CoV PLpro

Work on `CCN(CC)C(=S)SSC(=S)N(CC)CC` [DS, disulfiram, reference compound] yielded an inhibition at 10 µM of 87%.

Target: SARS‐CoV‐2 PL^pro (Severe acute respiratory syndrome coronavirus 2, UniProt P0DTD1)
Assay: biochemical
Assay type: biochemical
Details: not given

Compared with `C1=CCCC=CCC1.Cn1[c-][n+](C)c(-c2ccccc2)c1.[Br-].[Rh+]` [Rh‐9], `O=C(NC1C(O)OC(CO)C(O)C1O)C1CCN(C(=S)[S][Au][PH](c2ccccc2)(c2ccccc2)c2ccccc2)CC1` (mixture of isomers) [Au‐36] is 16-fold lower in IC50: 2200 ± 1000 nM for the first, 140 ± 90 nM for the second. The second is the more potent here.

`CCn1[c]([Au-][S]C(=S)N2CCC(C(=O)NC3C(O)OC(CO)C(O)C3O)CC2)[n+](CC)c2ccccc21` (mixture of isomers) [Au‐35] gave an IC50 of 410 ± 140 nM.

For `C1=CCCC=CCC1.Cn1[c-][n+](C)c(-c2ccccc2)c1.[Br-].[Rh+]` [Rh‐9], the “IC50 SARS‐CoV‐2 PL^pro” value was “low micromolar range”.
In the case of `CCn1[c]([Au-][S]C(=S)N2CCC(C(=O)NC3C(O)OC(CO)C(O)C3O)CC2)[n+](CC)c2ccccc21` (mixture of isomers) [Au‐35], the “IC50 SARS‐CoV‐2 PL^pro” value is reported as “Submicromolar”.
In the case of `O=C(NC1C(O)OC(CO)C(O)C1O)C1CCN(C(=S)[S][Au][PH](c2ccccc2)(c2ccccc2)c2ccccc2)CC1` (mixture of isomers) [Au‐36], the “IC50 SARS‐CoV‐2 PL^pro” value is reported as “Submicromolar”.

Same assay, conditions: 1 µM

Compared with `C1=CCCC=CCC1.CCn1[c-][n+](CC)c(-c2ccc(F)cc2)c1.[Cl-].[Rh+]` [Rh‐4], K7[Ti2PW10O40] ⋅ 6H2O [POM‐3] is lower in “inhibition of SARS-CoV-2 PLpro” value: 17% for the first, 15% for the second.

Going from `CC(C)n1cc(-c2ccccc2)[n+](C(C)C)[c]1[Au-][c]1n(C(C)C)c(-c2ccccc2)c[n+]1C(C)C.[I-]` [Au‐29] to `Cc1ccc(C(C)C)cc1.Cc1ccc2c(c1)[n+](Cc1ccccc1)[c-]n2Cc1ccccc1.[Br-].[Br-].[Ru+2]` [Ru‐2], the “inhibition of SARS-CoV-2 PLpro” value rises from 4% to 5%.

First: C1=CCCC=CCC1.Cn1[c-][n+](C)c(-c2ccccc2)c1.[Cl-].[Rh+] [Rh‐8]
Second: Cn1[c]([Au-][c]2n(C)c3ccccc3[n+]2C)[n+](C)c2ccccc21.[I-] [Au‐21]
The “inhibition of SARS-CoV-2 PLpro” value of the first is higher: 35% for the first, 10% for the second.

First: C[CH2][Hg][S]c1ccccc1C(=O)[O-].[Na+] [Hg‐1, thiomersal, reference compound]
Second: C1=CCCC=CCC1.CCn1[c-][n+](CC)c(-c2ccc(F)cc2)c1.[Br-].[Rh+] [Rh‐5]
The “inhibition of SARS-CoV-2 PLpro” value of the first is lower: 9% for the first, 19% for the second.

Compared with `C1=CCCC=CCC1.Cn1[c-][n+](C)c(-c2ccccc2)c1.[Br-].[Rh+]` [Rh‐9], ((NH2)3C)4[(N3C6H4As)2Mo6O24] [POM‐10] is lower in “inhibition of SARS-CoV-2 PLpro” value: 50% for the first, 4% for the second.

Going from `C1=CCCC=CCC1.CCn1[c-][n+](CC)c(-c2ccccc2)c1.[Cl-].[Rh+]` [Rh‐1] to `CCn1[c]([Au-][S]C(=S)N2CCC(C(=O)NC3C(O)OC(CO)C(O)C3O)CC2)[n+](CC)c2ccccc21` (mixture of isomers) [Au‐35], the “inhibition of SARS-CoV-2 PLpro” value rises from -4% to 58%.

First: CC(C)n1[c]([Au-][c]2n(C(C)C)c3ccccc3[n+]2C(C)C)[n+](C(C)C)c2ccccc21.[Br-] [Au‐22]
Second: O=C(NC1C(O)OC(CO)C(O)C1O)C1CCN(C(=S)[S][Au][PH](c2ccccc2)(c2ccccc2)c2ccccc2)CC1 (mixture of isomers) [Au‐36]
The “inhibition of SARS-CoV-2 PLpro” value of the first is lower: 7% for the first, 74% for the second.

For `CC(=O)OC[C@H]1O[C@@H]([S-])[C@H](OC(C)=O)[C@@H](OC(C)=O)[C@@H]1OC(C)=O.CCP(CC)CC.[Au+]` [Au‐1, auranofin, reference compound], the “inhibition of SARS-CoV-2 PLpro” value was 51% and > 50%.

Same assay, conditions: read-out: inhibition of SARS-CoV-2 PLpro

Work on `CCN(CC)C(=S)SSC(=S)N(CC)CC` [DS, disulfiram, reference compound] yielded an inhibition at 1 µM of 73%.
